Measurements reported in patent US7049094B2, “Methods for identifying modulators of N-type ion channel inactivation” (Wyeth, priority 1999, dated 2006).

What was measured:
[1] = tested on: PTZ-induced seizures; assay: Protection against pentylenetetrazol-induced seizures; format: in vivo; settings: Mus musculus; mice, I.P., 30 min before PTZ 85 mg/kg s.c.; read-out: estimated ED50, protection against PTZ-induced seizures
Description: FIG. 8. Protection against pentelenetetrazol-induced seizures in the mouse. Adult male mice were treated with valproic acid (FIG. 8a), Compound A (FIG. 8b), and Compound B (FIG. 8c) at doses from 30–178 mg/kg i.p. (n=8/dose). Thirty minutes later, these animals were challenged with pentelenetetrazol (85 mg/kg, SC) and observed for onset of seizures during a 30 minute test period. The number of animals protected from seizures was plotted versus dose of test compound and ED50s were estimated from this dose-response data.
The activities of Kv channel modulators were examined in several in vitro and in vivo seizure models. Field potential recordings were performed in the CA1 region of rat hippocampal slices treated with 10 μM bicuculline to induce multiple population spikes (Albus, H. and R. Williamson, Epilepsia (1998) 39(2):124–139). […] To test this hypothesis directly, the disinactivators were examined for their ability to protect mice from pentylenetetrazol-induced seizures. Mice were pretreated with Compound “D” or Compound “E” (30–300 mg/kg i.p.), valproic acid (156 mg/kg i.p.) or saline. Thirty minutes later, pentylenetetrazol (PTZ; 85 mg/kg, s.c.) was administered and the mice were monitored for development of spontaneous, recurrent seizures (a seizure was defined as loss of righting reflex; see Frey, H.-H. and I. Bartels, Epilepsy Res. (1997) 27:151–164). […]

[2] = target: T1, hKv1.4 channels (Homo sapiens, UniProt P22459); assay: Elimination of N-type inactivation of hKv1.4 channels (CHO cells); format: cell-based; settings: glutathione keeps channels in reduced (inactivating) state
T1 construct: expressed in transfected cells; host or cells: CHO cells
Description: Compounds active in the yeast assay were examined for their ability to disrupt N-type Kv channel inactivation in CHO cells transfected with hKv1.1 alone, hKv1.1 plus hKvβ1, or hKv1.4, and in Xenopus oocytes injected with the corresponding mRNA's. […] This “disinactivating” effect was potent and dose dependent, with an IC50 ranging from 0.3 μM to […] in CHO cells and a 3–5 fold higher IC50 of 0.9 μM in oocytes. […] In addition to the disinactivating effect of these compounds, a parallel dose-dependent increase in peak current occurred simultaneously with the loss of inactivation. This increase in peak current is probably at least partially due to the removal of inactivation, which uncovers the “true” peak current of the channels in the cell, although other mechanisms such as a stabilization of the open state of the channel may also be occurring. […] At 100 μM, however, Compound “A” blocked approximately 37% of the hKv1.1 current in CHO cells, thus high concentrations of some of these compounds are able to block Kv1.1 channels.
The mechanism of action of these Kv channel modulators (referred to herein as “disinactivators”) was further explored first by altering the voltage protocol so that single voltage steps to 50 mV were applied once every 20 sec (FIG. 8). […]

T1 sequence (P22459 whole entry): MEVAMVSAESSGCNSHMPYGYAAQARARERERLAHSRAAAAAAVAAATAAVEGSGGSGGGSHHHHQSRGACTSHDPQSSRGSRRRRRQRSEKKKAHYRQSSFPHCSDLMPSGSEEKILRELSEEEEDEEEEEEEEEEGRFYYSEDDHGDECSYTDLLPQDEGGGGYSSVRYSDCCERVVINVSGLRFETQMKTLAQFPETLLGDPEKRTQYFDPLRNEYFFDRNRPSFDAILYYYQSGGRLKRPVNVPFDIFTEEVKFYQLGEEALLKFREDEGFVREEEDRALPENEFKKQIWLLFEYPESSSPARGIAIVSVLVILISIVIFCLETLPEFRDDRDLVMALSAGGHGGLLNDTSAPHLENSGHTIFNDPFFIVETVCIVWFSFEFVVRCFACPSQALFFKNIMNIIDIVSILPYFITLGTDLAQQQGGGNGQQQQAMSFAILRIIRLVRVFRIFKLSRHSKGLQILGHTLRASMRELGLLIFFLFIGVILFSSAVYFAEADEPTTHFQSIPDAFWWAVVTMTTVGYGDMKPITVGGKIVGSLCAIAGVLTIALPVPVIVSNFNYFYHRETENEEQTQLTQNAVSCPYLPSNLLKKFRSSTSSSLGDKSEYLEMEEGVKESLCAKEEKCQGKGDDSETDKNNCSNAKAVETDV

SMILES	ED50 [1]	disinactivation of hKv1.4 with glutathione applied [2]
CCCC(CCC)C(=O)O [valproic acid]	141 mg/kg	–
OO [Compound H2O2, H2O2]	–	Glutathione was able to block the disinactivation
